# Reference: patent US11365227B2, “Peptide and pharmaceutical compositions of same for use as an antimicrobial and in cancer treatment” (UNIVERSITAT DE VALÈNCIA, priority 2017, dated 2022)
# Where two headings read alike, the source gives them in different places. Where a SMILES comes first, the peptide text is derived from it.
# Legend:
# Type in all cases: cell-based, human
# MDA-MB-231 cells [1] = experiment: Differential proteomic analysis by SWATH
# MDA-MB-231 cells [2] = experiment: Cell proliferation analysis by flow cytometry with Oregon Green; settings: 50 μM (200 μg/mL)
# Method: A cell proliferation analysis was performed by flow cytometry for tumour cells marked with the fluorophore Oregon Green subsequently treated with a concentration of 50 μM (200 μg/mL) of the peptide PaSK or with H2O as control. This analysis allowed exploring the use of PaSK in a combined therapeutic approach. The combined use of therapeutic agents meant to inhibit tumour growth and maintenance and agents capable of stimulating the patient's immune response in the treatment of cancer is an alternative therapeutic approach to conventional approaches based only on cytotoxic agents for reducing the impact of the two main problems associated with the exclusive use of cytotoxic agents in cancer therapy: non-specific toxicity and the appearance of resistance.
# The reagent Oregon Green is covalently bonded to free amine groups of cells, conferring on same a homogeneous fluorescence that is distributed among the daughter cells in each cell division. As the fluorescence intensity of the cells is approximately halved with each cell division, the final fluorescence intensity after treatment with the peptide and in non-treated control cells compared to the initial fluorescence intensity of the cells provides information on how many cell division cycles have occurred in each case.
# MDA-MB-231 tumour cells = experiment: Scanning and transmission electron microscopy of tumour cells; settings: 100 μg/mL, 72 h
# Method: The MDA-MB-231 cells, control or treated with 100 μg/mL of PaSK, were prepared as indicated in the section “Preparation of the samples”. The cells were fixed with Karnosky (2.5% paraformaldehyde and 0.5% glutaraldehyde) for 2 h at 4° C. After washing (centrifuging and eliminating the supernatant) they were fixed with 2% osmium tetraoxide for another 2 h, washed again and filtered with a 0.2 μm filter. The cells were then dehydrated in graded ethanol series (30°, 50°, 70°, 90°, 100°) for 10 min in each gradation. To carry out the critical point drying, the ethanol was replaced with liquid CO2, the temperature was increased to accelerate evaporation and the pressure was lowered slowly to conserve the exact shape of the cells. Finally, shading with gold palladium was performed for 2 min observing the results in the equipment FEG-SEM HITACHI S4800 at 10 Kv. […]
# Both scanning electron microscopy and transmission electron microscopy provide high resolution images, which were used to view the morphological and ultrastructural changes caused by the peptide PaSK in the membrane and inside of tumour cells. The MDA-MB-231 cells were treated with the peptide PaSK at a concentration of 100 μg/mL for 72 h, and were analysed using scanning electron microscopy (FIG. 14) and transmission electron microscopy (FIG. 15). […]
smiles,measurement,setting,value
CC[C@H](C)[C@H](NC(=O)[C@H](CCCNC(=N)N)NC(=O)[C@H](CCCNC(=N)N)NC(=O)[C@H](CCCCN)NC(=O)[C@H](CC(N)=O)NC(=O)[C@H](CS)NC(=O)[C@H](Cc1ccc(O)cc1)NC(=O)CNC(=O)CNC(=O)[C@H](CCCNC(=N)N)NC(=O)[C@H](CCCCN)NC(=O)[C@H](CCCNC(=N)N)NC(=O)[C@H](CCCCN)NC(=O)[C@H](CC(C)C)NC(=O)[C@H](CC(C)C)NC(=O)[C@H](CS)NC(=O)[C@H](Cc1c[nH]cn1)NC(=O)[C@H](C)NC(=O)[C@H](C)NC(=O)[C@H](CS)NC(=O)[C@H](C)NC(=O)[C@H](C)NC(=O)[C@H](Cc1c[nH]cn1)NC(=O)[C@H](CC(N)=O)NC(=O)[C@@H](NC(=O)[C@@H](N)CCCCN)C(C)C)C(=O)N[C@@H](CS)C(=O)N[C@H](C(=O)N[C@@H](CS)C(=O)N[C@@H](CCCNC(=N)N)C(=O)N[C@@H](CC(N)=O)C(=O)O)C(C)C [PaSK] (H-KVNHAACAAHCLLKRKRGGYCNKRRICVCRN-OH; N-terminus and C-terminus assumed),T/C change ratio,MDA-MB-231 cells [1],1.45
same,T/C change ratio,"MDA-MB-231 cells [1]; ASNA_HUMAN, ATPase ASNA1",0.21
same,T/C change ratio,"MDA-MB-231 cells [1]; BAZ1B_HUMAN, Tyrosine-protein kinase BAZ1B",0.31
same,T/C change ratio,"MDA-MB-231 cells [1]; CALD1_HUMAN, Caldesmon",0.71
same,T/C change ratio,"MDA-MB-231 cells [1]; CDCP1_HUMAN, Protein 1 containing domain CUB",1.22
same,T/C change ratio,"MDA-MB-231 cells [1]; CK068_HUMAN, UPF0696 protein C11orf68",0.83
same,T/C change ratio,"MDA-MB-231 cells [1]; DCUP_HUMAN, Uroporfphyrinogen decarboxylase",0.21
same,T/C change ratio,"MDA-MB-231 cells [1]; DDX17_HUMAN, Probable DDX17 ATP-dependent RNA helicase",0.84
same,T/C change ratio,"MDA-MB-231 cells [1]; DENR_HUMAN, Density regulated protein",0.31
same,T/C change ratio,"MDA-MB-231 cells [1]; DHX36_HUMAN, DHX36 ATP-dependent RNA helicase",0.27
same,T/C change ratio,"MDA-MB-231 cells [1]; DPOD1_HUMAN, DNA polymerase delta catalytic subunit",0.50
same,T/C change ratio,"MDA-MB-231 cells [1]; EIF3B_HUMAN, Eukaryotic translation initiation factor 3B (EIF3B)",0.84
same,T/C change ratio,"MDA-MB-231 cells [1]; FXR1_HUMAN, Fragile X mental retardation protein 1",0.76
same,T/C change ratio,"MDA-MB-231 cells [1]; GPX1_HUMAN, Glutathione peroxidase 1 (GPX1)",5.89
same,T/C change ratio,"MDA-MB-231 cells [1]; KAD2_HUMAN, Adenylate kinase 2, mitochondrial",0.51
same,T/C change ratio,"MDA-MB-231 cells [1]; LARP1_HUMAN, La related protein 1 (LARP1)",0.28
same,T/C change ratio,"MDA-MB-231 cells [1]; MANF_HUMAN, Mesencephalic astrocyte-derived neurotrophic factor",0.63
same,T/C change ratio,"MDA-MB-231 cells [1]; MMP14_HUMAN, Matrix metalloprotease-14",1.92
same,T/C change ratio,"MDA-MB-231 cells [1]; PYRG1_HUMAN, CTP synthase 1",0.82
same,T/C change ratio,"MDA-MB-231 cells [1]; RL5_HUMAN, 60 S ribosomal protein L5 (RPSL5)",0.60
same,T/C change ratio,"MDA-MB-231 cells [1]; RS13_HUMAN, 40S ribosomal protein S13 (RPS13)",0.82
same,T/C change ratio,"MDA-MB-231 cells [1]; SDCB1_HUMAN, Sintenin-1",1.43
same,T/C change ratio,"MDA-MB-231 cells [1]; SET_HUMAN, SET protein",0.90
same,T/C change ratio,"MDA-MB-231 cells [1]; SH3G1_HUMAN, Endophilin-A2",0.63
same,T/C change ratio,"MDA-MB-231 cells [1]; SHLB2_HUMAN, Endophilin-B2",0.29
same,T/C change ratio,"MDA-MB-231 cells [1]; SQRD_HUMAN, Sulphide: quinone oxidoreductase (SQRDL), mitochondrial",1.30
same,T/C change ratio,"MDA-MB-231 cells [1]; TAGL2_HUMAN, Transgelin-2",0.75
same,T/C change ratio,"MDA-MB-231 cells [1]; TM9S4_HUMAN, Member 4 of the transmembrane 9 superfamily",0.37
same,T/C change ratio,"MDA-MB-231 cells [1]; TPM4_HUMAN, Tropomyosin alpha-4 chain",0.74
same,T/C change ratio,"MDA-MB-231 cells [1]; TRXR1_HUMAN, Thioredoxin reductase 1 (TXNRD1), cytoplasmic",1.59
same,T/C change ratio,"MDA-MB-231 cells [1]; U2AF2_HUMAN, U2AF union factor 65 kDa subunit",0.31
same,cell proliferation (Oregon Green fluorescence intensity),MDA-MB-231 cells [2],inhibits proliferation
same,morphological and ultrastructural changes,MDA-MB-231 tumour cells,significant morphological changes
